Tested on: human SKM-1 acute myeloid leukemia cells
Assay: SKM-1 antiproliferation cell-based assay (ATPlite)
Procedure: The cell-based assay indirectly measures cell density (and therefore proliferation and/or survival) by detecting total ATP concentration in a homogeneous format. Briefly, human SKM-1 acute myeloid leukemia cells (Leibniz Institute DSMZ #ACC 547) proliferating in log phase are collected by centrifugation, re-suspended in culture media (RPMI 1640/15% FBS/100 U/mL penicillin/100 μg/mL streptomycin) and diluted to 34722 cells/mL in media after counting. Then 180 μL cells are plated per well into a 96-well tissue-culture treated, clear bottom plate (Coming #3603). A 96-well compound plate (Corning #3357) is then generated by serial dilution of compounds into DMSO over nine concentrations and adding separate negative (DMSO) and positive control (reference compound) wells. Each compound concentration is tested in triplicate. First, 1 μL from each well of the compound plate is added to 99 μL culture media in an intermediate plate and mixed by pipetting. Then 20 μL of the diluted compounds in media are added to the assay plate containing the cells. The assay plate is maintained for 4 days in a standard cell culture incubator. At the end of the incubation period, 100 μL ATPlite Istep (PerkinElmer) is added to the assay plate wells, and the resulting luminescence is detected using an Infinite M1000 or a Spark multimode plate reader (Tecan). Data analysis is performed in Prism (GraphPad Software). For curve fitting, a non-linear regression, variable slope equation is used to calculate cellular IC50s.

[1] = Homo sapiens, SKM-1, SKM-1 antiproliferation assay

Row | Compound | GI50 [1] | GI50 (SKM-1 antiproliferation assay)
1 | CCc1ncc(-c2nc(F)cc(-c3ccc(-n4ccn(C)c4=O)c(Cl)c3)c2O)cc1N1CCN(C(C)(C)C)CC1 [Example 1059, 1-(4-(5′-(4-(tert-butyl)piperazin-1-yl)-6′-ethyl-6-fluoro-3-hydroxy-[2,3′-bipyridin]-4-yl)-2-chlorophenyl)-3-methyl-1,3-dihydro-2H-imidazol-2-one] | 0.3 to 30 nM | 
2 | Cn1ccn(-c2ccc(-c3cc(F)nc(-c4cnc(O)c(N5CCN(C(C)(C)C)CC5)c4)c3O)cc2Cl)c1=O [Example 1049, 1-(4-(5′-(4-(tert-butyl)piperazin-1-yl)-6-fluoro-3,6′-dihydroxy-[2,3′-bipyridin]-4-yl)-2-chlorophenyl)-3-methyl-1,3-dihydro-2H-imidazol-2-one] | 30 to 300 nM | 
3 | Cn1ccn(-c2ccc(-c3cc(F)cc(-c4cccc(N5CCN(C(C)(C)C)CC5)c4)c3N)cc2Cl)c1=O [Example 1058, 1-[2′-Amino-3-(4-tert-butyl-piperazin-1-yl)-3″-chloro-5′-fluoro-[1,1′;3′,1″ ]terphenyl-4″-yl]-3-methyl-1,3-dihydro-imidazol-2-one] | 0.3 to 30 nM | 
4 | Cc1ncc(-c2nc(F)cc(-c3ccc(-n4ccn(C)c4=O)c(Cl)c3)c2O)cc1N1CCN(C(C)(C)C)CC1 [Example 1043, 1-(4-(5′-(4-(tert-Butyl)piperazin-1-yl)-6-fluoro-3-hydroxy-6′-methyl-[2,3′-bipyridin]-4-yl)-2-chlorophenyl)-3-methyl-1H-imidazol-2(3H)-one] | 30 to 300 nM | 
5 | Cc1ncc(-c2cc(F)cc(-c3ccc(-n4ccn(C)c4=O)c(Cl)c3)c2O)cc1N1CC2(CC2)[C@](C)(O)C1 [Example 874] |  | 0.3 to 30 nM

Further lines, results first:

Row | GI50 [1] | GI50 (SKM-1 antiproliferation assay) | Compound
6 | 0.3 to 30 nM |  | Cc1cc(-c2ccc(N3CCN(C)C3=O)c(Cl)c2)c(O)c(-c2cccc(N3CCN(C(C)(C)C)CC3)c2)n1 [Example 1046, 1-(4-(2-(3-(4-(tert-Butyl)piperazin-1-yl)phenyl)-3-hydroxy-6-methylpyridin-4-yl)-2-chlorophenyl)-3-methylimidazolidin-2-one]
7 | 0.3 to 30 nM |  | Cn1ccn(-c2ccc(-c3cc(F)nc(-c4cccc(N5CCN(C(C)(C)C)CC5)c4)c3O)cc2F)c1=O [Example 1054, 1-(4-{2-[3-(4-tert-Butyl-piperazin-1-yl)-phenyl]-6-fluoro-3-hydroxy-pyridin-4-yl}-2-fluoro-phenyl)-3-methyl-1,3-dihydro-imidazol-2-one]
8 | 0.3 to 30 nM |  | CC1=CCN(c2ccc(-c3cc(F)cc(-c4cccc(N5CCN(C(C)(C)C)CC5)c4)c3O)cc2Cl)C1=O [Example 1051, 1-(3″-(4-(tert-Butyl)piperazin-1-yl)-3-chloro-5′-fluoro-2′-hydroxy-[1,1′:3′,1″-terphenyl]-4-yl)-3-methyl-1,5-dihydro-2H-pyrrol-2-one]
9 | 0.3 to 30 nM |  | Cn1ccn(-c2ccc(-c3nc(F)cc(-c4cccc(N5CCN(C(C)(C)C)CC5)c4)c3N)cc2Cl)c1=O [Example 1057, 1-(4-(3-amino-4-(3-(4-(tert-butyl)piperazin-1-yl)phenyl)-6-fluoropyridin-2-yl)-2-chlorophenyl)-3-methyl-1,3-dihydro-2H-imidazol-2-one]
10 | 30 to 300 nM |  | Cc1cc(-c2ccc(N3CCCC3=O)c(Cl)c2)c(O)c(-c2cccc(N3CCN(C(C)(C)C)CC3)c2)n1 [Example 1041, 1-(4-(2-(3-(4-(tert-butyl)piperazin-1-yl)phenyl)-3-hydroxy-6-methylpyridin-4-yl)-2-chlorophenyl)pyrrolidin-2-one]
11 | 0.3 to 30 nM |  | Cn1ccn(-c2ccc(-c3cc(F)nc(-c4cccc(N5CCN(C(C)(C)C)CC5)c4)c3N)cc2Cl)c1=O [Example 1056, 1-(4-(3-amino-2-(3-(4-(tert-butyl)piperazin-1-yl)phenyl)-6-fluoropyridin-4-yl)-2-chlorophenyl)-3-methyl-1,3-dihydro-2H-imidazol-2-one]
12 | 300 to 3000 nM |  | Cn1ccn(-c2ccc(-c3cc(C=O)cc(-c4cccc(N5CCN(C(C)(C)C)CC5)c4)c3O)cc2Cl)c1=O [Example 1042, 3″-(4-(tert-Butyl)piperazin-1-yl)-3-chloro-2′-hydroxy-4-(3-methyl-2-oxo-2,3-dihydro-1H-imidazol-1-yl)-[1,1′:3′,1″-terphenyl]-5′-carbaldehyde]
